Patent US9258998B2, “Methods for controlling flower development in plants” (Yale University, priority 2009, dated 2016)

Columns and labels:
Assay type in all cases: in vivo
[1] = test system: ts1 mutant (ts1-ref/ts1-ref) plants; assay: Jasmonic acid treatment of ts1 mutant maize tassels
Procedure: (§1) Maize plants were grown under greenhouse conditions. Two seeds were planted in 2-gallon reusable pots containing Super-Fine Germinating Mix (Fafard, Agawam, Mass., USA) or Redi-earth Professional Growing Mix (Sun Gro, Bellevue, Wash., USA). Fertilization was performed with controlled release Osmocote Plus 15-9-12 (Scotts, Marysville, Ohio, USA) following the manufacturer recommendations. Additional watering was performed with 4% ammonium iron citrate (Sigma-Aldrich) every 2 weeks to prevent chlorosis. Greenhouse average temperatures were 28° C. (day) and 21° C. (night). Supplemental lightning was provided to achieve a 16:8 hour photoperiod yearlong.
(§2) Tassels of about 1 cm were considered to be at an ideal stage to initiate chemical treatments. Since a thick leaf whorl covers the maize tassel at this time of development, only a destructive dissection of the plant permits to assess with certainty the stage of tassel development (Bonnet, 1940, J. Agricult. Res. 60:25; Bonnet, 1948, Ann. Mo. Bot. Gard. 35:269). Additionally, the sex determination phase was reached within a wide time window, between 28 and 46 days post-planting, depending on the growing conditions. Leaf number, node number or internode distance were not always reliable criteria to predict the tassel developmental stage.
Seedlings from a family segregating 1:1 for wild-type (ts1-ref/Ts1) and ts1 mutant (ts1-ref/ts1-ref) plants were genotyped for the Ts1 and ts1-ref alleles with a PCR-based assay. […] Jasmonic acid (JA, Sigma-Aldrich) was dissolved at a concentration of 200 mM in absolute ethanol and stored at −20° C. Prior to plant treatment, the JA stock solution was diluted to a concentration of 1 mM in deionized water. Control plants were treated with a 0.005% ethanol solution (“blank” treatment or negative control). One ml of the corresponding solution was applied into the apical leaf cavity of each plant. Treatments were performed three times at 48-hour intervals.
The developmental timing of the pistil abortion process occurs in tassel inflorescences when they are 1.0 to 3.0 cm in length (Irish & Nelson, 1993, Am. J. Bot. 80:292), which was also the stage at which ts1 expression occurred in the subtending glumes (FIGS. 6B to 6D). A 0.005% ethanol solution, with or without 1 mM JA, was applied to tassels of ˜1 cm in wildtype (ts1-ref/+) or ts1 mutant (ts1-ref/ts1-ref) sibling plants.

[2] = test system: wildtype (ts1-ref/+) sibling plants; assay: Jasmonic acid treatment of heterozygous wild-type sibling maize plants; conditions: 1 mM JA, three times at 48-hour intervals
Procedure: as §1
as §2, with “stage. […]” for “stage.”

[3] = test system: mutant ts2-ref/ts2-ref and ts2-ref/+ plants; assay: Jasmonic acid treatment of ts2 maize plants; conditions: JA applied as for ts1 plants
Procedure: as §1
as §2, with “stage. […]” for “stage.”

[4] = 1 mM JA, three times at 48-hour intervals

Q: How did the “sexual phenotype of tassel (feminization; staminate spikelets)” value ([1]; 1 mM JA in 0.005% ethanol, 1 ml into apical leaf cavity, three times at 48-hour intervals, tassels of ~1 cm) turn out when `CC/C=C\C[C@H]1C(=O)CC[C@@H]1CC(=O)O` [JA, (1R,2R)-3-oxo-2-(2Z)-2-pentenylcyclopentaneacetic acid] was run?
A: reversed feminization

Q: And the “glume morphology of treated ts1 mutants” value [1, 4]?
A: elongated, were covered with numerous trichomes, and had a ring of anthocyanin deposited at the base

Q: What about the “time to appearance of wildtype rescue in glumes after treatment” value [1, 4] of the same molecule?
A: 3 to 4 weeks

Q: And the “stamen emergence from treated ts1 mutant spikelets” value ([1]; later in floral development)?
A: stamens emerged

Q: And the “pollen viability of staminate florets from rescued ts1/ts1 plants” value ([1]; pollen used for self-pollination and test crosses)?
A: produced viable pollen

Q: And the “completeness of rescued tassel inflorescence phenotype” value ([1]; some spikelets bisexual, others at base pistillate)?
A: incomplete

Q: And the “effect of treatment on heterozygous ts1-ref/+ sibs” value [2]?
A: nor did JA treatment affect heterozygous ts1-ref/+ sibs

Q: What about the “response of ts2 plants to treatment” value [3] of the same molecule?
A: responded in the same manner as the JA-treated ts1 mutants
